Laboratory results as given in ChEMBL document CHEMBL1147712, “Triketoacid inhibitors of HIV-integrase: a new chemotype useful for probing the integrase pharmacophore” (Bioorg Med Chem Lett, 2006).
Calls of active or inactive are those of the source. The rule behind the calls is not given here.

Legend:
[1] = target: T1, Human immunodeficiency virus type 1 integrase (Human immunodeficiency virus 1, UniProt Q7ZJM1)
[2] = target: T1, Human immunodeficiency virus type 1 integrase; remark: listed apart in the source
Enterobacteria phage T3 = assay: Inhibition of T3 polymerase
[3] = target: DNA polymerase I (Escherichia coli) (UniProt P00582); assay: Inhibition of Klenow fragment
[4] = tested on: Bovine viral diarrhea virus 1; assay: Antiviral activity against BVDV; assay type: functional, organism-based
[5] = tested on: Respiratory syncytial virus; assay: Antiviral activity against RSV; assay type: functional, organism-based
[6] = tested on: Human immunodeficiency virus 1; assay: Antiviral activity against HIV1; assay type: functional, organism-based
Enterovirus = assay: Antiviral activity against Rhinovirus; assay type: functional, organism-based
[7] = tested on: Human immunodeficiency virus 1; assay: Antiviral activity against wild-type HIV1 NL4-3; assay type: functional, organism-based; conditions: Human immunodeficiency virus 1, NL4-3
[8] = tested on: Human immunodeficiency virus 1; assay: Antiviral activity against HIV1 T66I, L172F mutant; assay type: functional, organism-based
[9] = tested on: Human immunodeficiency virus 1; assay: Antiviral activity against HIV1 V151A, V165I mutant; assay type: functional, organism-based
[10] = tested on: Human immunodeficiency virus 1; assay: Antiviral activity against HIV1 NL4-3 T66I mutant; assay type: functional, organism-based; conditions: Human immunodeficiency virus 1, NL4-3
[11] = target: T1, Human immunodeficiency virus type 1 integrase; assay: Inhibition of HIV1 recombinant integrase in pre-integration complex
[12] = target: Human immunodeficiency virus type 1 protease (Human immunodeficiency virus 1) (UniProt Q72874); assay: Inhibition of HIV protease
[13] = target: Human immunodeficiency virus type 1 reverse transcriptase (Human immunodeficiency virus 1) (UniProt Q72547); assay: Inhibition of HIV-RT
[14] = target: Genome polyprotein (Bovine viral diarrhea virus (strain CP7) (BVDV) (Mucosal diseasevirus)) (UniProt Q96662); assay: Inhibition of BVDV polymerase; conditions: Bovine viral diarrhea virus 1

Row | SMILES | IC50 [1] | also measured
1 | O=C(/C=C(\O)C(=O)O)CCc1ccccc1Br | 5 µM | 
2 | O=C(O)C(=O)/C=C(\O)c1c[nH]c2ccc(Cl)cc12 | 0.4 µM | IC50 [2]: 0.08 µM
3 | O=C(CC(=O)C(=O)O)CC(=O)c1ccccc1 | 80 µM | 
4 | COc1ccccc1C(=O)CC(=O)CC(=O)C(=O)O | 4 µM | 
5 | O=C(CC(=O)C(=O)O)CC(=O)c1cccc(Cl)c1 | 8 µM | 
6 | O=C(CC(=O)C(=O)O)CC(=O)c1ccccc1Cl | 1 µM | Activity (Enterobacteria phage T3): inactive; Activity [3]: inactive; Activity [4]: inactive; Activity [5]: inactive; EC50 [6]: 120 µM; Activity (Enterovirus): inactive; EC50 [7]: 55 µM; EC50 [8]: > 200 µM; EC50 [9]: > 200 µM; EC50 [10]: > 200 µM; IC50 [11]: 0.6 µM; Activity [12]: inactive; Activity [13]: inactive; Activity [14]: inactive; IC50 [2]: 0.2 µM
7 | O=C(CC(=O)c1nnn[nH]1)CC(=O)c1ccccc1Cl | 125 µM | 
8 | O=C(CC(=O)C(=O)O)CC(=O)c1ccccc1F | 3 µM | 
9 | O=C(/C=C(\O)C(=O)O)CCc1ccccc1 | 30 µM | 
10 | O=C(CC(=O)C(=O)O)CC(=O)c1cccc2ccccc12 | 0.6 µM | 
11 | O=C(CC(=O)C(=O)O)CC(=O)c1cccnc1 | > 300 µM | 
12 | O=C(CC(=O)C(=O)O)CC(=O)c1ccccc1C(F)(F)F | 6 µM | 
13 | O=C(CCc1ccccc1Cl)CC(=O)C(=O)O | 9 µM | 
14 | O=C(CC(=O)C(=O)O)CC(=O)c1ccccc1OCc1ccccc1 | 7 µM | 
15 | O=C(/C=C(\O)C(=O)O)CCc1ccc(Cl)c(Cl)c1 |  | IC50 [2]: 0.01 µM
16 | O=C(CC(=O)C(=O)O)CC(=O)c1ccc2ccccc2c1 | 6 µM | 
17 | O=C(CC(=O)C(=O)O)CC(=O)c1ccc(-c2ccccc2)cc1 | 2 µM | 
18 | O=C(CC(=O)c1cccn1Cc1ccc(F)cc1)c1nnn[nH]1 | > 125 µM | 
19 | O=C(CC(=O)C(=O)O)CC(=O)c1ccccn1 | 100 µM | 
20 | O=C(/C=C(\O)C(=O)O)CCc1ccccc1Cl | 26 µM | 
